Measurements as given in patent US20070254882A1, “Sulfamide Derivatives and Pharmaceutical Composition for Upregulation of Lipid Metabolism Comprising Same” (CRYSTAL GENOMICS, INC., priority 2004, published 2007).

Assays:
human PPAR α [1] = molecular target: T1, human PPAR α (Homo sapiens, UniProt Q07869); assay: Exogeneous PPAR α agonist assay (GAL4 DNA binding domain/PPAR α ligand binding domain, luciferase) in 293T cells; assay type: cell-based; parameters: scale not given here; conditions: 25 μM compound, 48 hours, luciferase activity increase relative to the control
T1 construct: expressed in transfected cells; host or cells: HepG2 (ATCC HB-8065) or 293T cells (ATCC CRL-1573)
T1 sequence (Q07869 239-466 limits assumed): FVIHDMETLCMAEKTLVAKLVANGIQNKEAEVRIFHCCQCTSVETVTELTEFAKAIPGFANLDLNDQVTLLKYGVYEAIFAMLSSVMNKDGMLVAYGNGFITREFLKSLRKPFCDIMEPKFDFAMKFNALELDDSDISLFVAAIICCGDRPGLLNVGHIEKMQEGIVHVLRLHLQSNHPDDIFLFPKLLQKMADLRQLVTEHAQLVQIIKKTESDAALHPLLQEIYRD
Outline: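 HepG2 or 293T cells (2×10^4/well) lipofectamine-transfected 3 hours with PPAR α, UAS firefly-luciferase and Renilla-luciferase constructs. Compounds then added at 25 μM final and incubated 48 hours at 37° C. PPAR α activation measured as dual firefly/Renilla luciferase luminescence.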

ob/ob mice [2] = assay: Anti-obesity test: feed intake in ob/ob mice; assay type: in vivo; conditions: 100 mg/kg oral twice a day, first week of the test, P<0.005, FIG. 1a
Method: (§1) In order to evaluate the anti-obesity activity of the inventive compound, B6.V-Lepob/J mice (laboratory animal team of Korea Research Institute of Chemical Technology) were used for tests and lean mice as a control. Ob/ob mice are model animals for insulin-independent diabetes, suitable for studying the effect of an anti-obesity drug.
(§2) 42 mice weighing 38.6±1.4 g were selected randomly from a pool of ob/ob mice (7-9 weeks old), and divided into groups of 7 mice each. The test was carried out at a constant temperature (24±0.5° C.) and humidity (55±5%) using ventilation system (10-12 times/hour), under a specific pathogen free (SPF) condition created in an automatic on-off cycle of 12 hours.
(§3) The groups were divided to a control group treated only with an excipient, a positive control group treated with fenofibrate, and test groups treated with each of the compounds of Examples 5, 62 and 65, at dosage 100 mg/10 ml/kg body weight. Each of the test and control compounds was diluted with 0.5% CMC to a concentration to match the above dosage, and administered orally using a syringe into the stomach twice a day (9:00 and 18:00) for a period of 4 weeks, and the following characteristics were measured.
1) General Symptoms and Observation of Dead Animal
The conditions, behavioral changes, addictive symptoms and the death rate were observed constantly during the test period.

ob/ob mice [3] = assay: Anti-obesity test: lipid metabolism-related materials and glucose in blood of ob/ob mice; assay type: in vivo; conditions: 28 days; for GLU (glucose) / HDL (HDL-cholesterol) / LDL (LDL-cholesterol) / NEFA (free fatty acid) / TG (triglyceride): 100 mg/kg oral twice a day, fasted 16 hours, plasma
Method: as §1, §2, §3
3) Measurement of Lipid Metabolism-Related Materials and Insulin Concentration in Blood
28 days after the administration, experimental mice were fasted for 16 hours, and the concentrations of lipid metabolism-related materials such as triglyceride, free fatty acid and cholesterol, and insulin in blood were measured. Specifically, a blood sample was collected from the ocular venous plexus of each mouse and centrifuged to separate plasma. The glucose (GLU), HDL-cholesterol (HDL), LDL-cholesterol (LDL), triglyceride (TG) and free fatty acid (NEFA) levels were measured by enzymatic assay using 2 kinds of Selectra (Vital Lab), an automatic biochemical analyzer, and the insulin concentration was measured by ELISA using an insulin detection kit (Shibayagi).

ob/ob mice [4] = assay: Oral glucose tolerance test (OGTT) in ob/ob mice; assay type: in vivo
Method: as §1, §2, §3
4) Oral Glucose Tolerance Test (OGTT)
28 days after the administration, each of the experimental mice was fasted for 16 hours, 2 g/kg of glucose was administered thereto, a blood sample was collected from the ocular venous plexus thereof at 0, 15, 30, 60 and 120 min from the administration, and the glucose concentration and AUC (area under the curve, Skrumsager et al., J Clin Pharmacol. 43, 1244-1256, 2003) were determined.

human PPAR α [5] = molecular target: T1, human PPAR α; assay: Exogeneous PPAR α agonist assay (GAL4 DNA binding domain/PPAR α ligand binding domain, luciferase) in HepG2 cells; assay type: cell-based; conditions: 25 μM compound, 48 hours, luciferase activity increase relative to the control
Method: Step 1) Exogeneous PPAR α Agonist Assay
Cross-activation assay of the compounds of Examples 1 to 134 against human PPAR α was carried out using a DNA construct of PPAR α including its ligand binding domain and GAL4 DNA binding domain (Sher et al., Biochemistry 32, 5598-5604, 1993) to analyze whether any of the compounds binds to the ligand binding domain of PPAR α expressed by the construct to affect the PPAR α activity. When the GAL4 DNA binding domainm which is fused with PPAR α ligand binding domain, binds to UAS (upstream activation sequence) of firefly-luciferase, the luciferase is expressed. Therefore, the effect of each of the compounds of Examples on PPAR α activation can be evaluated by analyzing the activation of luciferase.
Specifically, 2×10^4 of HepG2 (ATCC HB-8065) or 293T cells (ATCC CRL-1573) were aliquotted into each well of a 96-well plate and cultured for overnight at 37° C. in a CO2 incubator (culture condition: DMEM, 10% FBS and 1% antibiotics).
The transformation of PPAR α DNA was traced as follows. First, a mixture of the following ingredients in amounts per well; Solution A (Promega) containing 50 ng of full length human PPAR α DNA, 50 ng of firefly-luciferase construct, 5 ng of Renilla-luciferase construct, 1.0 μl of PLUS™ reagent, and 8.3 μl of a serum-free medium containing no antibiotics; was prepared and kept at room temperature for 15 min. Solution B, which contained 0.5 μl of Lipofectamine™ reagent and 9.5 μl of serum-free medium without antibiotics per well, and Solution C, which contained 50 μl of serum-free medium per well), were prepared. Solutions A, B and C were mixed together to prepare lipofectamin-DNA complex, and the mixture was kept at room temperature for 15 min. Single layer of cells on each well of a 96-well plate were washed with serum-free DMEM, 70 μl of lipofectamine-DNA complex prepared above was added thereto, the plate was incubated at 37° C. in a 5% CO2 incubator for 3 hours to transform the cells, and […] of a diluted solution of each of the compounds of Examples 1 to 134 per well was added to each well to a final concentration 25 μM, and incubated at 37° C. in a CO2 incubator for 48 hours. Then, the medium was removed, 50 μl of passive lysis buffer (Promega) was added thereto, and the plate was shook at room temperature for 20 min to lysis cells. 40 μl of Luciferase Assay reagent of Dual Luciferase Kit […] per 20 μl of cell lysis buffer was added to the plate, followed by reacting at 20° C. for 8 seconds, and 40 μl of Stop & Glo reagent (Promega) as a stop solution was added thereto to quench the reaction. The luminescence intensities of F-luciferase and R-luciferase were measured with MicroLumat Plus (Berthord Technology).

Cc1oc(-c2ccc(C(F)(F)F)cc2)nc1CCOc1cccc(CN(CC(=O)O)S(=O)(=O)N(C)C)c1 [Example 65, [N—(N,N-dimethylamino)sulfonyl-N-[3-[2-[2-(4-trifluoromethylphenyl)-5-methyloxazol-4-yl]ethoxy]benzyl]amino]acetic acid]
Activity at 25 μM Step 1 293T cell (human PPAR α [1]): 1 | daily feed intake compared to the control group (ob/ob mice [2]): significantly reduced | GLU (glucose) (ob/ob mice [3]): 158.8 ± 44.0 mg/dL | HDL (HDL-cholesterol) (ob/ob mice [3]): 321.4 ± 31.8 mg/dL | LDL (LDL-cholesterol) (ob/ob mice [3]): 33.0 ± 9.3 mg/dL | NEFA (free fatty acid) (ob/ob mice [3]): 1,006 ± 203 UEq/l | TG (triglyceride) (ob/ob mice [3]): 45.9 ± 4.7 mg/dL | GLU concentration compared to the control or positive control group (ob/ob mice [3]): much lower | HDL concentration (ob/ob mice [3]): high | total changes in the glucose concentration represented by AUC compared to the control group (ob/ob mice [4]; 2 g/kg glucose, 0-120 min, P<0.05, P<0.005 and P<0.01, FIG. 3b): much lower | glucose concentration at 30 and 60 min after the glucose administration compared to the control group (ob/ob mice [4]; 2 g/kg glucose, P<0.01, P<0.05, FIG. 3a): significantly low | glucose concentration during the fast compared to the control group (ob/ob mice [4]; ob/ob mice, 28 days, fasted 16 hours, P<0.05, FIG. 3c): significantly low

Cc1ccc(-c2nc(COc3cccc(CN([C@@H](C)C(=O)O)S(=O)(=O)N(C)C)c3)c(C)o2)cc1 [Example 124, (S)-2-[N—(N,N-dimethylamino)sulfonyl-N-[3-[(5-methyl-2-p-tolyloxazol-4-yl)methoxy]benzyl]amino]propionic acid]
Activity at 25 μM Step 1 293T cell (human PPAR α [1]): 5 | Activity at 25 μM Step 1 HepG2 cell (human PPAR α [5]): 40

CC(C)OC(=O)C(C)(C)Oc1ccc(C(=O)c2ccc(Cl)cc2)cc1 [fenofibrate, reference compound]
GLU (glucose) (ob/ob mice [3]): 223.1 ± 77.2 mg/dL | HDL (HDL-cholesterol) (ob/ob mice [3]): 280.5 ± 28.5 mg/dL | LDL (LDL-cholesterol) (ob/ob mice [3]): 27.0 ± 4.7 mg/dL | NEFA (free fatty acid) (ob/ob mice [3]): 1,003 ± 80 UEq/l | TG (triglyceride) (ob/ob mice [3]): 49.4 ± 6.1 mg/dL

Cc1ccc(-c2nc(CCOc3ccc(CN(CC(=O)O)S(=O)(=O)N(C)c4cccc(F)c4)cc3)c(C)o2)cc1 [Example 113, [N—[N-(3-fluorophenyl)-N-methylamino]sulfonyl-N-[4-[2-[2-(4-methylphenyl)-5-methyloxazol-4-yl]ethoxy]benzyl]amino]acetic acid]
Activity at 25 μM Step 1 293T cell (human PPAR α [1]): 4 | Activity at 25 μM Step 1 HepG2 cell (human PPAR α [5]): 29

Cc1ccc(-c2nc(COc3cccc(C(C)N(CC(=O)O)S(=O)(=O)N4CCCC4)c3)c(C)o2)cc1 (centres unmarked) [Example 127, [N-(pyrrolidinyl)sulfonyl-N-[1-[[3-(5-methyl-2-p-tolyloxazol-4-yl)methoxy]phenyl]ethyl]amino]acetic acid]
Activity at 25 μM Step 1 293T cell (human PPAR α [1]): 3 | Activity at 25 μM Step 1 HepG2 cell (human PPAR α [5]): 50

CN(c1ccc(Cl)cc1)S(=O)(=O)N(CC(=O)O)Cc1ccc(OCCc2coc(-c3ccccc3)n2)cc1 [Example 133, [N—[[N-(4-chlorophenyl)-N-methyl]amino]sulfonyl-N-[4-[(2-phenyloxazol-4-yl)ethoxy]benzyl]amino]acetic acid]
Activity at 25 μM Step 1 293T cell (human PPAR α [1]): 4 | Activity at 25 μM Step 1 HepG2 cell (human PPAR α [5]): 34

Cc1oc(-c2ccc(C(F)(F)F)cc2)nc1CCOc1cccc(CN(CC(=O)O)S(=O)(=O)N(C)C(C)C)c1 [Example 68, [N—(N-isopropyl-N-methylanmo)sulfonyl-N-[3-[2-[2-(4-trifluoromethylphenyl)-5-methyloxazol-4-yl]ethoxy]benzyl]amino]acetic acid]
Activity at 25 μM Step 1 293T cell (human PPAR α [1]): 2 | Activity at 25 μM Step 1 HepG2 cell (human PPAR α [5]): 11

CCN(CC)S(=O)(=O)N(CC(=O)O)Cc1cccc(OCc2nc(-c3ccc(C(F)(F)F)cc3)oc2C)c1 [Example 7, [N—(N,N-diethylamino)sulfonyl-N-[3-[[2-(4-trifluoromethylphenyl)-5-methyloxazol-4-yl]methoxy]benzyl]amino]acetic acid]
Activity at 25 μM Step 1 293T cell (human PPAR α [1]): 3 | Activity at 25 μM Step 1 HepG2 cell (human PPAR α [5]): 54

COc1ccc(N(C)S(=O)(=O)N(CC(=O)O)Cc2cccc(OCc3nc(-c4ccc(C(F)(F)F)cc4)oc3C)c2)cc1 [Example 22]
Activity at 25 μM Step 1 293T cell (human PPAR α [1]): 4 | Activity at 25 μM Step 1 HepG2 cell (human PPAR α [5]): 49

Cc1ccc(-c2nc(COc3cccc(CN([C@H](C(=O)O)C(C)C)S(N)(=O)=O)c3)c(C)o2)cc1 [Example 2, (S)-3-methyl-2-[N-(sulfamoyl)-N-[3-[(5-methyl-2-p-tolyloxazol-4-yl)methoxy]benzyl]amino]butyric acid]
Activity at 25 μM Step 1 293T cell (human PPAR α [1]): 6 | Activity at 25 μM Step 1 HepG2 cell (human PPAR α [5]): 25

C#CCN(C)S(=O)(=O)N(CC(=O)O)Cc1cccc(OCc2nc(-c3ccc(C(F)(F)F)cc3)oc2C)c1 [Example 10, [N—(N-methyl-N-propargylamino)sulfonyl-N-[3-[[2-(4-trifluoromethylphenyl)-5-methyloxazol-4-yl]methoxy]benzyl]amino]acetic acid]
Activity at 25 μM Step 1 293T cell (human PPAR α [1]): 3 | Activity at 25 μM Step 1 HepG2 cell (human PPAR α [5]): 45
